Legend:
[1] = The toxicity was evaluated against KB cells using podophyllotoxin (ED50 0.2 nM) as a standard; type: functional; settings: Homo sapiens, read-out: ED50 (the source's name)
Trypanosoma cruzi [2] = experiment: (§1) In vitro Trypanosoma cruzi (TC); type: functional; settings: read-out: ED50 (the source's name)
Plasmodium falciparum = experiment: In vitro inhibitory activity against Plasmodium falciparum; type: functional, organism-based
Trypanosoma cruzi [3] = experiment: as §1; type: functional, organism-based
[4] = The toxicity was evaluated against KB cells; type: functional; settings: Homo sapiens, read-out: ED50 (the source's name)

Row | Structure (SMILES) | EC50 [1] | EC50 (Trypanosoma cruzi [2]) | IC50 (Plasmodium falciparum) | IC50 (Trypanosoma cruzi [3]) | EC50 [4]
1 | COc1cc2c(c(OC(=O)COC(C)=O)c1OC)C(=O)[C@]1(OC)C=C[C@H]2N(c2ccccc2)O1 | 128 µM | > 63.9 µM | 3.2 µM |  | 
2 | COc1cc2c(c(OC)c1OC)C(=O)[C@]1(OC)C=C[C@H]2N(c2ccccc2)O1 | < 0.8 µM | 65.3 µM | 8.9 µM |  | 
3 | COc1cc2c(c(OC(=O)c3ccc(Cl)cc3)c1OC)C(=O)[C@]1(OC)C=C[C@H]2N(c2ccccc2)O1 | 29.1 µM | > 59 µM | > 59 µM |  | 
4 | COc1cc2c(c(O)c1OC)C(=O)[C@]1(OC)C=C[C@H]2N(c2ccccc2)O1 | < 0.8 µM | 4.3 µM | 5.4 µM |  | 
5 | COc1cc2c(c(OC(=O)CN3C(=O)c4ccccc4C3=O)c1OC)C(=O)[C@]1(OC)C=C[C@H]2N(c2ccccc2)O1 | 89.8 µM | 11.9 µM | 6.1 µM |  | 
6 | CCC(=O)Oc1c(OC)c(OC)cc2c1C(=O)[C@]1(OC)C=C[C@H]2N(c2ccccc2)O1 | < 0.7 µM |  | 6.6 µM | > 70.5 µM | 
7 | COc1cc2c(c(OC(=O)c3ccc(F)cc3)c1OC)C(=O)[C@]1(OC)C=C[C@H]2N(c2ccccc2)O1 | 6.5 µM | 9.2 µM | 7.5 µM |  | 
8 | COc1ccc(C(=O)Oc2c(OC)c(OC)cc3c2C(=O)[C@]2(OC)C=C[C@H]3N(c3ccccc3)O2)cc1 | 13.3 µM | > 59.6 µM | 6.6 µM |  | 
9 | CCCC(=O)Oc1c(OC)c(OC)cc2c1C(=O)[C@]1(OC)C=C[C@H]2N(c2ccccc2)O1 | 3.2 µM | > 68.3 µM | 3.9 µM |  | 
10 | COc1cc2c(c(OC(=O)c3ccccc3)c1OC)C(=O)[C@]1(OC)C=C[C@H]2N(c2ccccc2)O1 | 11.8 µM | > 63.4 µM | 3.4 µM |  | 
11 | COc1cc2c(c(OC(=O)c3ccccc3F)c1OC)C(=O)[C@]1(OC)C=C[C@H]2N(c2ccccc2)O1 | 7.7 µM | > 61 µM | 6.3 µM |  | 
12 | COc1cc2c(c(OC(C)=O)c1OC)C(=O)[C@]1(OC)C=C[C@H]2N(c2ccccc2)O1 | 6.3 µM |  | 5.3 µM | 23.8 µM | 
13 | COc1cc([C@@H]2c3cc4c(cc3[C@H](O)[C@H]3COC(=O)[C@H]23)OCO4)cc(OC)c1OC [PODOFILOX] |  |  |  |  | 0.0002 µM
14 | O=C(Cn1ccnc1[N+](=O)[O-])NCc1ccccc1 [BENZNIDAZOLE] |  | 7.1 µM |  |  | 

From ChEMBL document CHEMBL1134140, “Design, synthesis, and biological evaluation of a series of simple and novel potential antimalarial compounds” (Bioorg Med Chem Lett, 2001)
